The test system of data set [1] is Schoenoplectiella juncoides. The data set can be described thus: Pre-emergence herbicidal activity against Schoenoplectiella juncoides assessed as phytotoxic weed control visual ratings at 25 g ai/ha measured after 14 days post treatment under flooded conditions. Type of data set: functional.
Data set [2] has as its system Cyperus difformis. The data set can be described thus: Pre-emergence herbicidal activity against Cyperus difformis assessed as phytotoxic weed control visual ratings at 25 g ai/ha measured after 14 days post treatment under flooded conditions. Type of data set: functional.
In the next data set the test system is Zea mays. The experiment in a line: Pre-emergence phytotoxicity against Zea mays (maize) assessed as phytotoxic crop injury visual ratings at 500 g ai/ha measured after 14 days post treatment under upland field conditions. Type of data set: organism-based. Conditions: in vivo, other, 336 h.
Data set [3] concerns Echinochloa crus-galli. The experiment in a line: Pre-emergence herbicidal activity against Echinochloa crus-galli (barnyard grass) assessed as phytotoxic weed control visual ratings at 500 g ai/ha measured after 14 days post treatment under upland field conditions. Type of data set: functional.
Data set [4] deals with Elatine triandra. The experiment in a line: Pre-emergence herbicidal activity against Elatine triandra assessed as phytotoxic weed control visual ratings at 25 g ai/ha measured after 14 days post treatment under flooded conditions. Type of data set: functional.
Data set [5] deals with Oryza sativa. The data set can be described thus: Pre-emergence phytotoxicity against Oryza sativa cv. Koshihikari (rice) assessed as phytotoxic crop injury visual ratings at 25 g ai/ha measured after 14 days post treatment under flooded conditions. Type of data set: organism-based. The conditions noted are these: in vivo, other, 336 h.
Data set [6] relates to Echinochloa oryzicola. The experiment in a line: Pre-emergence herbicidal activity against Echinochloa oryzicola assessed as phytotoxic weed control visual ratings at 25 g ai/ha measured after 14 days post treatment under flooded conditions. Type of data set: functional.
Data set [7] in a line: Selectivity index, ratio of ED10 for Oryza sativa to ED90 for Echinochloa oryzicola by post-emergence exposure method.
Data set [8] concerns Echinochloa crus-galli. The experiment in a line: Early post-emergence herbicidal activity against Echinochloa crus-galli (barnyard grass) assessed as phytotoxic weed control visual ratings at 50 kg ai/ha measured after 14 days post treatment under flooded conditions. It counts as functional.
A short description of data set [9]: Selectivity index, ratio of ED10 for Oryza sativa to ED90 for Echinochloa oryzicola by pre-emergence exposure method.
Data set [10] relates to Echinochloa oryzicola. The data set can be described thus: Pre-emergence herbicidal activity against Echinochloa oryzicola assessed as phytotoxic weed control visual ratings measured after 14 days post treatment. Type of data set: functional.
Data set [11] concerns Lindernia procumbens. The experiment in a line: Pre-emergence herbicidal activity against Lindernia procumbens assessed as phytotoxic weed control visual ratings at 25 g ai/ha measured after 14 days post treatment under flooded conditions. Type of data set: functional.
Data set [12] has as its system Rotala indica. The data set can be described thus: Pre-emergence herbicidal activity against Rotala indica assessed as phytotoxic weed control visual ratings at 25 g ai/ha measured after 14 days post treatment under flooded conditions. It counts as functional.
The subject of another data set is Chenopodium album. The experiment in a line: Pre-emergence herbicidal activity against Chenopodium album assessed as phytotoxic weed control visual ratings at 500 g ai/ha measured after 14 days post treatment under upland field conditions. It counts as functional.
In a further data set the test system is Amaranthus viridis. The data set can be described thus: Pre-emergence herbicidal activity against Amaranthus viridis assessed as phytotoxic weed control visual ratings at 500 g ai/ha measured after 14 days post treatment under upland field conditions. Type of data set: functional.
In a further data set the test system is Digitaria ciliaris. The experiment in a line: Pre-emergence herbicidal activity against Digitaria ciliaris assessed as phytotoxic weed control visual ratings at 500 g ai/ha measured after 14 days post treatment under upland field conditions. Type of data set: functional.
Data set [13] concerns Echinochloa oryzicola. The experiment in a line: Post-emergence herbicidal activity against Echinochloa oryzicola assessed as phytotoxic weed control visual ratings measured after 14 days post treatment. Type of data set: functional.
The test system of data set [14] is Oryza sativa. The data set can be described thus: Post-emergence phytotoxicity against Oryza sativa cv. Koshihikari (rice) assessed as phytotoxic crop injury visual ratings measured after 14 days post treatment. It counts as organism-based. The conditions noted are these: in vivo, 336 h.
The subject of data set [15] is Oryza sativa. The data set can be described thus: Pre-emergence phytotoxicity against Oryza sativa cv. Koshihikari (rice) assessed as phytotoxic crop injury visual ratings measured after 14 days post treatment. Type of data set: organism-based. Conditions: in vivo, 336 h.
Data set [16] concerns Pontederia vaginalis. The data set can be described thus: Early post-emergence herbicidal activity against Monochoria vaginalis assessed as phytotoxic weed control visual ratings at 50 kg ai/ha measured after 14 days post treatment under flooded conditions. Type of data set: functional.
Data set [17] relates to Pontederia vaginalis. The data set can be described thus: Pre-emergence herbicidal activity against Monochoria vaginalis assessed as phytotoxic weed control visual ratings at 25 g ai/ha measured after 14 days post treatment under flooded conditions. It counts as functional.
Another data set deals with Ammannia multiflora. The data set can be described thus: Early post-emergence herbicidal activity against Ammannia multiflora assessed as phytotoxic weed control visual ratings at 50 kg ai/ha measured after 14 days post treatment under flooded conditions. It counts as functional.
In data set [18] the test system is Schoenoplectiella juncoides. The data set can be described thus: Pre-emergence herbicidal activity against Schoenoplectiella juncoides assessed as phytotoxic weed control visual ratings at 2.5 kg ai/ha measured after 14 days post treatment under flooded conditions. It counts as functional.
For data set [19], the system named is Lindernia procumbens. The data set can be described thus: Pre-emergence herbicidal activity against Lindernia procumbens assessed as phytotoxic weed control visual ratings at 2.5 kg ai/ha measured after 14 days post treatment under flooded conditions. Type of data set: functional.
The subject of data set [20] is Elatine triandra. The experiment in a line: Pre-emergence herbicidal activity against Elatine triandra assessed as phytotoxic weed control visual ratings at 2.5 kg ai/ha measured after 14 days post treatment under flooded conditions. It counts as functional.
For data set [21], the system named is Rotala indica. The experiment in a line: Pre-emergence herbicidal activity against Rotala indica assessed as phytotoxic weed control visual ratings at 2.5 kg ai/ha measured after 14 days post treatment under flooded conditions. Type of data set: functional.
Data set [22] relates to Elatine triandra. The experiment in a line: Pre-emergence herbicidal activity against Elatine triandra assessed as phytotoxic weed control visual ratings at 1.25 kg ai/ha measured after 14 days post treatment under flooded conditions. Type of data set: functional.
The subject of data set [23] is Cyperus difformis. The data set can be described thus: Pre-emergence herbicidal activity against Cyperus difformis assessed as phytotoxic weed control visual ratings at 2.5 kg ai/ha measured after 14 days post treatment under flooded conditions. It counts as functional.
The test system of data set [24] is Pontederia vaginalis. The data set can be described thus: Pre-emergence herbicidal activity against Monochoria vaginalis assessed as phytotoxic weed control visual ratings at 1.25 kg ai/ha measured after 14 days post treatment under flooded conditions. Type of data set: functional.
In data set [25] the test system is Rotala indica. The experiment in a line: Pre-emergence herbicidal activity against Rotala indica assessed as phytotoxic weed control visual ratings at 1.25 kg ai/ha measured after 14 days post treatment under flooded conditions. It counts as functional.
Data set [26] concerns Lindernia procumbens. The experiment in a line: Pre-emergence herbicidal activity against Lindernia procumbens assessed as phytotoxic weed control visual ratings at 1.25 kg ai/ha measured after 14 days post treatment under flooded conditions. Type of data set: functional.
In data set [27] the test system is Oryza sativa. The data set can be described thus: Pre-emergence phytotoxicity against Oryza sativa cv. Koshihikari (rice) assessed as phytotoxic crop injury visual ratings at 2.5 kg ai/ha measured after 14 days post treatment under flooded conditions. Conditions: in vivo, other, 336 h. It counts as organism-based.
The test system of data set [28] is Schoenoplectiella juncoides. The experiment in a line: Pre-emergence herbicidal activity against Schoenoplectiella juncoides assessed as phytotoxic weed control visual ratings at 1.25 kg ai/ha measured after 14 days post treatment under flooded conditions. It counts as functional.
Data set [29] deals with Oryza sativa. The data set can be described thus: Pre-emergence phytotoxicity against Oryza sativa cv. Koshihikari (rice) assessed as phytotoxic crop injury visual ratings at 1.25 kg ai/ha measured after 14 days post treatment under flooded conditions. Type of data set: organism-based. The conditions noted are these: in vivo, other, 336 h.
In data set [30] the test system is Echinochloa oryzicola. The experiment in a line: Pre-emergence herbicidal activity against Echinochloa oryzicola assessed as phytotoxic weed control visual ratings at 2.5 kg ai/ha measured after 14 days post treatment under flooded conditions. It counts as functional.
Data set [31] relates to Pontederia vaginalis. The data set can be described thus: Pre-emergence herbicidal activity against Monochoria vaginalis assessed as phytotoxic weed control visual ratings at 2.5 kg ai/ha measured after 14 days post treatment under flooded conditions. Type of data set: functional.
Data set [32] has as its system Echinochloa oryzicola. The data set can be described thus: Pre-emergence herbicidal activity against Echinochloa oryzicola assessed as phytotoxic weed control visual ratings at 1.25 kg ai/ha measured after 14 days post treatment under flooded conditions. It counts as functional.
Data set [33] concerns Oryza sativa. The data set can be described thus: Pre-emergence phytotoxicity against Oryza sativa cv. Koshihikari (rice) assessed as induction of leaf sheath browning at 2.5 kg ai/ha measured after 14 days post treatment under flooded conditions. The conditions noted are these: in vivo, other, 336 h. Type of data set: organism-based.
In data set [34] the test system is Cyperus difformis. The experiment in a line: Pre-emergence herbicidal activity against Cyperus difformis assessed as phytotoxic weed control visual ratings at 1.25 kg ai/ha measured after 14 days post treatment under flooded conditions. Type of data set: functional.

In the case of `C#CCOc1cc(N2C(=O)OC(=C(C)C)C2=O)c(F)cc1Cl`, the Phytotoxicity in data set [1] was determined as 100%; with Cyperus difformis [2] it was 100%; in the data set with Zea mays, 10%; in the data set on Echinochloa crus-galli [3], 80%; with Elatine triandra [4], 100%; with Oryza sativa [5] it was 30%. Also, the Phytotoxicity in the data set on Echinochloa oryzicola [6], in the data set with Echinochloa crus-galli [8], in the data set with Lindernia procumbens [11], with Rotala indica [12], in the data set with Chenopodium album and in the data set with Amaranthus viridis was 100% in each case. Also, the Phytotoxicity in the data set on Digitaria ciliaris, in the data set on Pontederia vaginalis [16], with Pontederia vaginalis [17] and with Ammannia multiflora was 100% each time. In addition, the Selectivity Index in data set [7] and in data set [9] was 2 throughout. Also, the values for the ED90 in the data set on Echinochloa oryzicola [10] and in the data set on Echinochloa oryzicola [13] were 3.13 gAi/ha and 12.5 gAi/ha, respectively. Moreover, the results for the ED10 in the data set with Oryza sativa [14] and in the data set on Oryza sativa [15] were 25 gAi/ha and 6.25 gAi/ha, respectively.
For `C#CCOc1cc(N2C(=O)OC(=C(C)C)C2=O)c(F)cc1Br`, the Phytotoxicity was 80% in the data set on Echinochloa crus-galli [8], 100% in the data set with Pontederia vaginalis [16] and 100% with Ammannia multiflora.
Regarding `CC(C)=C1OC(=O)N(c2ccc(Cl)cc2)C1=O`, the Phytotoxicity (in [18]; with Lindernia procumbens [19]; in the data set with Elatine triandra [20]; in the data set on Rotala indica [21]; in the data set on Elatine triandra [22]; in the data set on Cyperus difformis [23]) was 100% in each case. The Phytotoxicity in the data set on Pontederia vaginalis [24] is 100%; in the data set with Rotala indica [25], 100%; with Lindernia procumbens [26], 100%; with Oryza sativa [27] it was 30%; in [28], 100%; in the data set on Oryza sativa [29], 10%. Further, the Phytotoxicity was determined as 100% in the data set on Echinochloa oryzicola [30], 100% in the data set with Pontederia vaginalis [31], 90% in the data set on Echinochloa oryzicola [32] and 100% in the data set with Cyperus difformis [34]. The Activity result in the data set on Oryza sativa [33] is recorded as “Toxic”.
As for `C#CCOc1cc(N2C(=O)OC(=C(C)C)C2=O)c(Cl)cc1Cl`, the Phytotoxicity in the data set on Echinochloa crus-galli [8] stood at 90%; in the data set on Pontederia vaginalis [16] it was 100%; in the data set with Ammannia multiflora, 90%.
Consider `CC(C)=C1OC(=O)N(c2ccc(Cl)cc2Cl)C1=O`, for which the Phytotoxicity in data set [18] amounted to 100%; with Lindernia procumbens [19] it was 100%; in the data set on Elatine triandra [20], 100%; in the data set on Rotala indica [21] it was 100%; in the data set with Cyperus difformis [23] it was 100%; with Oryza sativa [27], 20%. Also, the Phytotoxicity in the data set on Echinochloa oryzicola [30] and with Pontederia vaginalis [31] was 100% throughout. The Activity result in the data set on Oryza sativa [33] is reported as “Toxic”.
Consider `C#CCSc1cc(N2C(=O)OC(=C(C)C)C2=O)c(F)cc1Cl`, for which the Phytotoxicity in data set [1] is listed as 100%; in the data set with Cyperus difformis [2], 100%; in the data set with Zea mays it was 0%; with Echinochloa crus-galli [3] it was 50%; in the data set on Elatine triandra [4], 100%; with Oryza sativa [5], 0%. Also, the Phytotoxicity with Echinochloa oryzicola [6] was 100%; with Lindernia procumbens [11], 100%; with Rotala indica [12], 100%; in the data set with Chenopodium album it was 100%; in the data set with Amaranthus viridis it was 100%; in the data set on Digitaria ciliaris, 30%. The Phytotoxicity with Pontederia vaginalis [17] is 100%. In addition, the Selectivity Index in data set [7] is 2; in data set [9] it was 4. In addition, the values for the ED90 in the data set on Echinochloa oryzicola [10] and in the data set on Echinochloa oryzicola [13] were 12.5 gAi/ha and 100 gAi/ha, respectively. For the same compound, the ED10 in the data set on Oryza sativa [14] is listed as 200 gAi/ha; in the data set on Oryza sativa [15] it was 50 gAi/ha.
Turning to `CC(C)=C1OC(=O)N(c2ccc(Cl)c(Cl)c2)C1=O`, the Phytotoxicity came to 80% in data set [18]; 100% in the data set on Lindernia procumbens [19]; 100% in the data set with Elatine triandra [20]; 100% in the data set on Rotala indica [21]; 100% with Cyperus difformis [23]; 10% in the data set on Oryza sativa [27]. Besides, the Phytotoxicity with Echinochloa oryzicola [30] was found to be 10%; in the data set on Pontederia vaginalis [31] it was 80%. Moreover, the Activity result in the data set on Oryza sativa [33] was “Toxic”.

These data come from ChEMBL document CHEMBL3046126, “Synthesis and Herbicidal Activity of New Oxazolidinedione Derivatives” (J Pestic Sci, 1999).
